Consider ten compounds from paper PMC4993649 (ChemMedChem, 2016).

One assay deals with MCF7 breast cancer cells. In words: Cell viability assay, MCF7. As to conditions: Homo sapiens, MCF7, 96 h, read-out: Effects on cell growth IC50, MCF7.
For assay [1], the target named is T1, purified full-length human ERβ (Homo sapiens, UniProt Q92731). Conditions: for β/α ratio (of RBA values): ERβ RBA / ERα RBA.
The subject of the next assay is LoVo colon cancer cells. Briefly: Cell viability assay, LoVo. Conditions: 96 h, read-out: Effects on cell growth IC50, LoVo.
Assay [2] deals with ERβ LBD/C369-biotin with SRC3 NRID-fluorescein (Homo sapiens, UniProt Q92731). Briefly: tr-FRET SRC3 titration into ERβ-ligand complex. As to conditions: E2 = 100.
In the next assay the test system is HCT colon cancer cells. Briefly: Cell viability assay, HCT. As to conditions: 96 h, read-out: Effects on cell growth IC50, HCT.
The subject of assay [3] is SkBr3 breast cancer cells. In words: Cell viability assay, SkBr3. As to conditions: Homo sapiens, SK-BR-3, 96 h, read-out: Effects on cell growth IC50, SkBr3.
Assay [4] has as its system MDA-MB-231 breast cancer cells. Briefly: Cell viability assay, MDA-MB-231. As to conditions: Homo sapiens, MDA-MB-231, 96 h, read-out: Effects on cell growth IC50, MDA231.
Assay [5] deals with ERβ/C369-biotin-SaTb with SRC3 NRID-fluorescein (Homo sapiens, UniProt Q92731). Briefly: tr-FRET ligand titration into ERβ and SRC3. It counts as biochemical. As to conditions: read-out: Ligand coactivator recruitment potency (Ligand titration) EC50; ligand titrated into 1 nM ERβ LBD, 0.25 nM SaTb, 100 nM SRC3-fluorescein; mean ± SD.
In assay [6] the target is T1, purified full-length human ERβ. Briefly: biochemical.
The subject of a further assay is U87 glioma cells. In words: Cell viability assay, U87. Conditions: 96 h, read-out: Effects on cell growth IC50, U87.

As a reminder, the IC50 is the concentration at which inhibition is half-maximal. For orientation: Ki means the equilibrium dissociation constant of an inhibitor or competing ligand from its target.

Like-named read-outs stand apart in the source and are kept apart here.

T1 sequence (Q92731 whole entry): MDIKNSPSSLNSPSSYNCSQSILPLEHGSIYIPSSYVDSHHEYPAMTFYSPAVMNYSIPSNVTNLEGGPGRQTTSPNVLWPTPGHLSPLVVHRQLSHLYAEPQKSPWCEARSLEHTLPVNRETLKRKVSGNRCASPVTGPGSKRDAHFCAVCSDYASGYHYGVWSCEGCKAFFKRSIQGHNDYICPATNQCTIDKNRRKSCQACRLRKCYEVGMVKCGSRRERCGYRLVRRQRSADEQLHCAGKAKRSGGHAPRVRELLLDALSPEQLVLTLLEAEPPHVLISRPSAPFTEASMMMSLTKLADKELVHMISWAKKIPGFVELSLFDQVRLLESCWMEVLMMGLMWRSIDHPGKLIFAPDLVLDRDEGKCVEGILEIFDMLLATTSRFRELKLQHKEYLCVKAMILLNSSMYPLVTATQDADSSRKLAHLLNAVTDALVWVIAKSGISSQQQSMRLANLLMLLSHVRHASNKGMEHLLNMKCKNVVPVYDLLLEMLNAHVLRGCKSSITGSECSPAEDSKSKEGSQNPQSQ
Sequence of ERβ/C369-biotin-SaTb with SRC3 NRID-fluorescein (Q9Y6Q9 627-829): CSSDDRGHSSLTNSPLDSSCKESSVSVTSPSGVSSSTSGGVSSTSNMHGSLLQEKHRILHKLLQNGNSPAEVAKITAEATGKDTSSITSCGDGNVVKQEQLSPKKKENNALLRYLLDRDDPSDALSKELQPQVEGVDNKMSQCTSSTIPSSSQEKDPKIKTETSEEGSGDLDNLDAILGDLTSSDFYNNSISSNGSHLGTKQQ
Sequence of ERβ/C369-biotin-SaTb with SRC3 NRID-fluorescein (Q92731 256-503): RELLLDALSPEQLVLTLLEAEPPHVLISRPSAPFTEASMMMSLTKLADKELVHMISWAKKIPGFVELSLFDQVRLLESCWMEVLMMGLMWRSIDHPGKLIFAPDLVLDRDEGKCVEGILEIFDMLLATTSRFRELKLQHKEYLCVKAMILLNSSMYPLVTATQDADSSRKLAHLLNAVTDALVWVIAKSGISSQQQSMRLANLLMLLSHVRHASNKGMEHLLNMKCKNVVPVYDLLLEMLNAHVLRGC
Sequence of ERβ LBD/C369-biotin with SRC3 NRID-fluorescein (Q9Y6Q9 627-829): as the sequence (Q9Y6Q9 627-829) above
Sequence of ERβ LBD/C369-biotin with SRC3 NRID-fluorescein (Q92731 256-503): as the sequence (Q92731 256-503) above

On to `O/N=C1\CCc2c(-c3ccc(O)cc3)ccc(O)c21` [1a, (E)-7-hydroxy-4-(4-hydroxyphenyl)-2,3-dihydro-1H-inden-1-one oxime], for which the IC50 in the assay with MCF7 breast cancer cells came to 70.1 ± 12.4 µM; in the assay on LoVo colon cancer cells (Homo sapiens, LoVo), 19.8 ± 2.1 µM; in the assay on HCT colon cancer cells (Homo sapiens) it was 61.5 ± 8.8 µM; in assay [3], 140 ± 11.2 µM; in [4] it was 42.3 ± 1.1 µM; with U87 glioma cells (Homo sapiens, U-87 MG), 150.7 ± 1.2 µM. Besides, in [1], the “β/α ratio (of RBA values)” value stood at 16. Also, the “Efficacy % (completeness of the curves relative to E2)” value in [2] is 93%. For the same compound, the EC50 in [5] came out at 0.0142 ± 0.003 µM. Further, affinity in assay [6] was put at a Ki of 0.0117 µM.
On to `COc1ccc(-c2ccc(O)c3c2CC/C3=N\O)cc1` [1b, (E)-7-hydroxy-4-(4-methoxyphenyl)-2,3-dihydro-1H-inden-1-one oxime], for which the “β/α ratio (of RBA values)” value in assay [1] came out at 3.0.
Turning to `O/N=C1\CCc2c(-c3ccc(O)c(F)c3)ccc(O)c21` [1c, (E)-4-(3-fluoro-4-hydroxyphenyl)-7-hydroxy-2,3-dihydro-1H-inden-1-one oxime], the IC50 in the assay with MCF7 breast cancer cells worked out at 23.2 ± 1.4 µM; in the assay on LoVo colon cancer cells (Homo sapiens, LoVo), 14.5 ± 3.1 µM; in the assay with HCT colon cancer cells (Homo sapiens), 10.8 ± 1.2 µM; in assay [3], 130 ± 9.7 µM; in assay [4], 8.1 ± 1.3 µM; in the assay with U87 glioma cells (Homo sapiens, U-87 MG) it was 32.3 ± 1.1 µM. Further, the “β/α ratio (of RBA values)” value in [1] came to 33. Besides, in assay [2], the “Efficacy % (completeness of the curves relative to E2)” value was determined as 88%. The EC50 in [5] is 0.0195 ± 0.0026 µM. In addition, in [6], the Ki stood at 0.0106 µM.
For `COc1ccc(-c2ccc(O)c3c2CC/C3=N\O)cc1F` [1d, (E)-4-(3-fluoro-4-methoxyphenyl)-7-hydroxy-2,3-dihydro-1H-inden-1-one oxime], in assay [1], the “β/α ratio (of RBA values)” value was 0.8.
Still for that read-out and setting: then `Cc1cc(-c2ccc(O)c3c2CC/C3=N\O)ccc1O` [1e, (E)-7-hydroxy-4-(4-hydroxy-3-methylphenyl)-2,3-dihydro-1H-inden-1-one oxime], with 6.3; and `COc1ccc(-c2ccc(O)c3c2CC/C3=N\O)cc1C` [1f, (E)-7-hydroxy-4-(4-methoxy-3-methylphenyl)-2,3-dihydro-1H-inden-1-one oxime], with 1.0.
Regarding `O/N=C1\CCc2c(-c3ccc(O)c(Cl)c3)ccc(O)c21` [1g, (E)-4-(3-chloro-4-hydroxyphenyl)-7-hydroxy-2,3-dihydro-1H-inden-1-one oxime], the “β/α ratio (of RBA values)” value in assay [1] came out at 8.0.
On the same count and under the same terms, then `COc1ccc(-c2ccc(O)c3c2CC/C3=N\O)cc1Cl` [1h, (E)-4-(3-chloro-4-methoxyphenyl)-7-hydroxy-2,3-dihydro-1H-inden-1-one oxime], with 0.50.
For the compound `O/N=C1\CCc2c(-c3ccccc3)ccc(O)c21` [1i, (E)-7-hydroxy-4-phenyl-2,3-dihydro-1H-inden-1-one oxime], the “β/α ratio (of RBA values)” value in assay [1] was 89. For the same compound, the “decrease of ERβ affinity compared to 1a” value in [1] (from RBA values) worked out at 24 fold. Moreover, the “Efficacy % (completeness of the curves relative to E2)” value in assay [2] is listed as 72%. Moreover, the EC50 in [5] stood at 0.393 ± 0.124 µM. In assay [6], the Ki was found to be 0.282 µM.
`O=C1C[C@@H](c2ccc(O)cc2)Oc2cc(O)ccc21` [Liquiritigenin, reference compound]: the IC50 worked out at 101 ± 10.2 µM with LoVo colon cancer cells (human colon cancer, mean ± SD); 75.3 ± 7.1 µM in the assay on HCT colon cancer cells (human colon cancer, mean ± SD); 115 ± 11.7 µM with U87 glioma cells (human glioma, mean ± SD).
